We go through two molecules from patent publication US6495559B2, “NPY Y5 receptor antagonists” (Merck & Co., Inc., priority 1998, dated 2002).

By melting point is commonly meant the temperature of the solid-liquid transition.

One data set concerns rats. Put plainly: Observation of abnormal behavior after oral dosing in rats. As to conditions: 100 mg/kg p.o., during 24 hour after dosing. The data set is classed as in vivo. How it is done:
Compound 100 was orally administered 1 hour prior to the ICV-injection of bPP in satiated male Sprague-Dawley rats. […] Thus, Compound 100 has a potent in vivo Y5 antagonistic activity without causing any abnormal behavior.

Another data set has as its system mice. Put plainly: Observation of abnormal behavior after oral dosing in mice. Type of data set: in vivo. The settings on record: 100 mg/kg p.o., during 24 hour after dosing.
Another data set concerns bPP-induced food intake. Put plainly: Bovine pancreatic polypeptide (bPP)-induced food intake in Sprague-Dawley rats. The settings on record: 1 hour prior to ICV bPP. The data set is classed as in vivo. As for the experimental part:
Male Sprague-Dawley rats aged 7 weeks (Charles River, Japan) were maintained under the controlled temperature (23±3° C.), humidity (55±15%) and light-dark cycle (7:00-19:00 light on). Rats were housed individually with ad libitum access food (CE-2, Clea Japan) and tap water. Rats were anesthetized with sodium pentobarbital (50 mg/kg, i.p., Dainabot, Japan). A permanent stainless steel guide cannula for intracerebroventricular (ICV) injection (21 gauge, 10 mm long) was stereotaxically implanted into the right lateral ventricle. The stereotaxic coordinates used were as follows: 0.9 mm posterior and 1.2 mm lateral to the bregma and 1.5 mm ventral to the brain surface. Animals were allowed at least 6-day recovery postoperatively before the start of feeding experiment. The day before the experiment, they were handled and underwent mock injection, and nocturnal food intake was measured. Rats which ate more than 15 g during the night before the experiment were used for the following experiment. Test compounds were suspended in 0.5% methylcellulose and orally administered by gavage. Administration of test compounds usually began at 10:00. Dosing volume was 5 ml/kg. […] Two hour post-injection food intake was measured for each rat. […]

Molecules are shown by their SMILES.

In the case of `CS(=O)(=O)N1CC2(CCN(C(=O)Nc3cnc(-c4ccccc4)cn3)CC2)c2ccccc21` [Compound 100, 1 -Methanesulfonyl-N-(5-phenyl-2-pyrazinyl)spiro[indoline-3,4′-piperidine]-1′-carboxamide], the abnormal behavior result with rats and in the data set with mice was “did not cause any abnormal behavior” in each case. Besides, the bPP-induced food intake entry with bPP-induced food intake (1, 3, 10 and 30 mg/kg orally, satiated male rats, two hour post-injection food intake) is “suppressed bPP-induced food intake in a dose-dependent manner”. The minimum effective dose in the data set with bPP-induced food intake (oral, suppression of bPP-induced food intake) was 3 mg/kg.
For the molecule `COc1ccc2oc(NC(=O)N3CCC4(CC3)CN(S(C)(=O)=O)c3ccccc34)nc2c1` [Compound 134, N-(5-methoxybenzoxazol-2-yl)-1-methylsulfonylspiro[indoline-3,4′-piperidine]-1′-carboxamide], the melting point was in the range of 194 to 196 °C.
